From US20210106567A1, “COMPOSITIONS AND METHODS FOR INHIBITING CARP-1 BINDING TO NEMO” (United States Government As Represented By The Department …, priority 2019, published 2021)

How the values were obtained:
[1] = system: diffuse large B cell lymphoma cells; assay: Cell viability, lymphoma; type: cell-based; details: Homo sapiens, read-out: IC50, reduced viabilities
MDA-MB-468 TNBC cells = assay: MTT cell viability, SNI-1 analogs; type: cell-based, human; details: 24 h
Method: FIGS. 22A-B show SNI-1 analogs enhance Adriamycin inhibition of TNBC cell growth. FIGS. 22A-B show cells treated with indicated dose of noted agent for 24 h, and their viabilities determined by MTT assay. Columns represent means of three independent experiments; bars, SE.
MDA-MB-468 TNBC cells were next treated with each of the analog in vitro as a single agent or in combination with Adriamycin in vitro.

murine TNBC cells = assay: Cytokine ELISA of culture media; type: cell-based; details: single agent
cleaved RIPK1 = assay: Western blot for RIPK1 cleavage; type: cell-based
Text: (§1) The cells were lysed to prepare protein extracts.

[2] = system: follicular cell lymphoma cells; assay: Cell viability, lymphoma; type: cell-based; details: Homo sapiens; read-out: IC50, reduced viabilities
[3] = system: mammospheres derived from human TNBC PDX tumors; assay: Three-dimensional mammosphere assay (MTT); type: cell-based; details: SNI-1 2.5 or 5.0 μM, Adriamycin 5 μM, 48 h
Method: Three-dimensional Mammosphere Assays: The PDX tumor cells were dissociated from the tumor fragments, and cultured for 2-dimensional and mammosphere studies in vitro (Cheriyan et al. (2016) Oncotarget 7, 73370-73388). Briefly, the cells were washed twice in 1×PBS, trypsinized, and pelleted at 200×g at room temperature. Cells were then re-suspended in 5 ml of mammosphere media (DMEM/F12 containing 2 mM L-glutamine, 100 U/ml penicillin, 100 U/ml streptomycin, 1×B27 supplement, 20 ng/ml recombinant human epidermal growth factor (EGF; Sigma), 10 ng/ml recombinant human basic fibroblast growth factor (bFGF; R&D Systems). Approximately 5000 viable cells per ml was then seeded in an ultra-low adherent 60 mm plate and incubated at 37° C. and 5% CO2 for two weeks without disturbing the plates. After the mammospheres formed, fresh media with or without Adriamycin (5 μM), SNI-1 (2.5 or 5.0 μM), or a combination of these agents was added and the cells incubated for additional 48 h at 37° C. and 5% CO2. The mammospheres in the untreated and treated plates were photographed, and the cells were then dissociated to determine their viabilities by the MTT assay (Cheriyan et al. (2016) Oncotarget 7, 73370-73388).

MDR1 = assay: Levels of drug efflux pump MDR1; type: cell-based, human; details: MDA-MB-468 cells
Text: Of note is that SNI-1 in combination with Adriamycin provoked a greater inhibition of tumor growth when compared with the tumor growth inhibition noted in animals treated with either agent alone. […] Since TNBCs and many other cancers are often known to express drug efflux pumps that contribute to lower efficacy of drugs in clinic and development of drug-resistant tumors, it is likely that the presence/expression of these drug efflux pumps function in part to interfere with a robust anti-tumor response to a combination of SNI-1 and Adriamycin.

[4] = target: T1, NEMO interaction with CARP-1 (Homo sapiens, UniProt Q8IX12); assay: IP-WB in Gst-NEMO expressing HBC cells, CARP-1; type: cell-based; details: alone or in combination with Adriamycin
T1 construct: expressed in transfected cells; host or cells: HBC cells stably expressing Gst-NEMO
Method: (§2) The biochemical mechanism of inhibition of CARP-1 (551-580; SEQ ID NO: 6) binding with NEMO (221-261; SEQ ID NO: 2) by SNI-1 was assessed. E. coli expressed Gst-NEMO (221-261; SEQ ID NO: 2) and His-TAT-HA-CARP-1 (551-580; SEQ ID NO: 6) peptides in IP-WB assays were used. […] Since Adriamycin activates ATM to regulate canonical NF-κB and DSB repair pathways, it remains to be clarified whether CARP-1 regulates RIPK1 signaling dependent and/or independent of ATM.
as §1

[5] = target: T2, NEMO interaction with RIPK1 (Homo sapiens, UniProt Q13546+Q9Y6K9); assay: IP-WB in Gst-NEMO expressing HBC cells, RIPK1; type: cell-based; details: alone or in combination with Adriamycin
T2 construct: expressed in transfected cells; host or cells: HBC cells stably expressing Gst-NEMO
Method: as §2, §1

[6] = system: p65/RelA activation and phosphorylation of NEMO; assay: Western blot for canonical NF-κB activation; type: cell-based; details: in presence of SNI-1
Text: as §1

[7] = system: SUM149 cell-derived xenografts; assay: SUM149 BRCA1-mutant TNBC xenografts in NCr-SCID mice; type: in vivo; details: 70 mg/kg daily×13, i.p. (parent) or i.v. (sodium salt)
Text: BRCA1 mutant TNBC Tumor Model: Testing for germline BRCA1/2 mutations permits identification of BRCA1/2 status as clinically relevant in the selection of therapy for patients already diagnosed with breast cancer. BRCA status predicts responsiveness to platinum-based chemotherapy, as well as to inhibitors of poly(ADP-ribose) polymerase (PARP) in breast and ovarian cancers. […] A related objective of this pilot study was to determine whether and to the extent SNI-1 or its water soluble, di-sodium derivative will elicit effects in vivo.

human TNBC cells = assay: Cytokine ELISA of culture media; type: cell-based; details: versus untreated cells
[8] = Dose-route determination in non-tumor-bearing mice; type: in vivo, mouse; details: 5% DMSO, 5% ethanol, 2% Tween 80 formulation
HeLa CARP-1 ko cells = assay: MTT cell viability; type: cell-based, human
MTT cell viability = type: cell-based, human; details: human, MDA-MB-231 TNBC cells; 1.0, 2.5, 5.0, or 10.0 μM over 24 h; read-out: loss of viability
Method: (§3) The murine TNBC cell line 4T1 that was derived from a spontaneously arising BALB/c mammary tumor were obtained from the Karmanos Cancer Institute (KCl), and were maintained in culture (Cheriyan et al. (2016) Oncotarget 7, 73370-73388). […] The cell culture media were also supplemented with 10% FBS, 100 units/ml of penicillin, and 100 μg/ml of streptomycin, and the cells were maintained at 37° C. and 5% CO2. For cell growth and MTT studies, the cells were cultured in fresh media with 5%-10% FBS prior to their treatments with various agents.
(§4) Cell Viability, Immunoprecipitation and Western Blot assays: 500-1000 cells were seeded in each well of 96 well plate and then either untreated (control) or treated with various agents for noted times. After treatment, MTT reagent was added at 0.5 mg/ml concentration for 2-4 hours at 37° C. DMSO was added to solubilize formazan and the plate was read at 570 nm in a plate reader. The histograms indicating levels of cell viability were generated by plotting the net absorbances (Rishi et al. (2003) J Biol Chem 278, 33422-33435; and Rishi et al. (2006) J Biol Chem 281, 13188-13198).

MDA-MB-231 TNBC cells = assay: MTT cell viability; type: cell-based, human; details: Homo sapiens, MDA-MB-231, 72 h
Method: as §3, §4

T1 sequence (Q8IX12 whole entry): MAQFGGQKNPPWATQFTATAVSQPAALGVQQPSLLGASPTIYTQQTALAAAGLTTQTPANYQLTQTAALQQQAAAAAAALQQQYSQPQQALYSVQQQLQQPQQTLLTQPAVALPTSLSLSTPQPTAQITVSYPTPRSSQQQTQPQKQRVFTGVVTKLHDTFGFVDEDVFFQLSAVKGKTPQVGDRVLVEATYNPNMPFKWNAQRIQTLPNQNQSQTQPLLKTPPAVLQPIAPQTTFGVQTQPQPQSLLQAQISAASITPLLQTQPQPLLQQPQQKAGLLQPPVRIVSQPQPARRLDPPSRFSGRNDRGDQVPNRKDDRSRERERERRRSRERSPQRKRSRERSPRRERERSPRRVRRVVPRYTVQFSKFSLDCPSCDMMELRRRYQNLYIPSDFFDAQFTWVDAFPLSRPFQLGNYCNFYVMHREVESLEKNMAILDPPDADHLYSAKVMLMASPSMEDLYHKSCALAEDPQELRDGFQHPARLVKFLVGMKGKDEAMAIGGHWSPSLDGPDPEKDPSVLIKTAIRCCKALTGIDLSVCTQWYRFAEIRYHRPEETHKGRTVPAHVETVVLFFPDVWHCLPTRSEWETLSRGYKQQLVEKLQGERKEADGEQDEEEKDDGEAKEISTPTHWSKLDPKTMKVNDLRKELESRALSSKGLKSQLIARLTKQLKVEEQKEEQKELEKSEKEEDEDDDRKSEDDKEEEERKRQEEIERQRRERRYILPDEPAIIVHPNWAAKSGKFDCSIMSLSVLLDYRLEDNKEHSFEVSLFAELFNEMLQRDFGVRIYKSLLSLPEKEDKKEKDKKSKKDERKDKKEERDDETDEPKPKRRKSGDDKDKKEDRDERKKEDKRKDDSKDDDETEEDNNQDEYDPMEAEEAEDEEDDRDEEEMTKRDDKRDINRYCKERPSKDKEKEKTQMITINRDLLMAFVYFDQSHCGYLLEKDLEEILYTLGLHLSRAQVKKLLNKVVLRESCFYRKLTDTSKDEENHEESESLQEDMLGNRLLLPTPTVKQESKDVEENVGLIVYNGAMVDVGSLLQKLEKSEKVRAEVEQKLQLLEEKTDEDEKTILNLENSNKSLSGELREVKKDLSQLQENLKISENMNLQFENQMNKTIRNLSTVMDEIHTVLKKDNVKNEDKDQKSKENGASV
T2 sequence (Q9Y6K9 whole entry): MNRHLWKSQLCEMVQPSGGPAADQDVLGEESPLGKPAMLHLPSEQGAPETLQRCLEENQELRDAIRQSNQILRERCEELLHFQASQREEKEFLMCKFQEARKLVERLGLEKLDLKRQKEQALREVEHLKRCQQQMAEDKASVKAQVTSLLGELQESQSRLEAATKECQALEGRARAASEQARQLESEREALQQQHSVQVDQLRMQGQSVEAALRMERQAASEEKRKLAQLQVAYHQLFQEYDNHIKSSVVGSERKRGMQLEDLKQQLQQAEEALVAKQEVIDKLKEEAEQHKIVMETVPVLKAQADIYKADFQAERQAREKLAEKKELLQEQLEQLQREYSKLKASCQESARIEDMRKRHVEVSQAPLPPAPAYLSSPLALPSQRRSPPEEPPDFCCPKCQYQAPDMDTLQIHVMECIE
T2 sequence (Q13546 whole entry): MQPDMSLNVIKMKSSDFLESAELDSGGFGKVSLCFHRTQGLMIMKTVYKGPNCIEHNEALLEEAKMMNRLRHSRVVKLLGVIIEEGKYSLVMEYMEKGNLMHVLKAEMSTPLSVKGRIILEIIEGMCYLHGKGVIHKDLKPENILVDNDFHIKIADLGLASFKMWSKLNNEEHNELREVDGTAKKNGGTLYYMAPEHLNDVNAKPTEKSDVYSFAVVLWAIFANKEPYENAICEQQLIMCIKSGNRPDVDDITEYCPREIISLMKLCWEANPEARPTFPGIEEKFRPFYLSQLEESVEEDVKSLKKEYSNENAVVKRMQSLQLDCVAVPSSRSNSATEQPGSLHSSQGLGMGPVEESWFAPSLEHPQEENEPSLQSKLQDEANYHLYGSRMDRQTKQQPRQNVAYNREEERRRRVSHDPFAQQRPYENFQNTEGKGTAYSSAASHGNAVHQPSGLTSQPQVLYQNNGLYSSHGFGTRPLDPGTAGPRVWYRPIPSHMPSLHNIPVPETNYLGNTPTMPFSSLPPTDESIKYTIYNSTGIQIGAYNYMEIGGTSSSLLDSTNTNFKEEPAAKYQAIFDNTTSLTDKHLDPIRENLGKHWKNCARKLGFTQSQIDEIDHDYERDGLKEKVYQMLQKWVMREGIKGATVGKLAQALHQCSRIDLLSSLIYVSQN

## Cc1ccc(-n2nnnc2SCC(=O)c2ccc(O)c(O)c2)cc1 [SNI-1, 1-(3,4-dihydroxyphenyl)-2-{(1-(4-methylphenyl)-1H-tetrazol-5-yl)thio}ethanone]
[1]
  IC50: ~10 µM
MDA-MB-468 TNBC cells
  loss of cell viability in combination with Adriamycin versus Adriamycin alone: greater loss of cell viability
Murine TNBC cells
  secretion of TNFα and IL-1β: failed to cause increase
Cleaved RIPK1
  expression of cleaved RIPK1: induced expression of cleaved RIPK1
[2]
  IC50: ~7.5 µM
[3]
  growth/viability of mammospheres: failed to inhibit growth of mammospheres
MDR1
  levels of drug efflux pump MDR1: robust increase
[4]
  NEMO interaction with CARP-1 (IP-WB): abrogated NEMO interaction with CARP-1
[5]
  NEMO interaction with RIPK1 (IP-WB): not with RIPK1
[6]
  p65 activation and NEMO phosphorylation by Adriamycin or Cisplatin: diminished p65 activation and NEMO phosphorylation
[7]
  tolerability: well tolerated
Human TNBC cells
  levels of TNFα and IL-8 in culture media: modest increase
[8]
  suitability for chronic intravenous administration: not suitable for chronic intravenous administration
HeLa CARP-1 ko cells
  loss of viabilities: failed to provoke any loss of viabilities
MTT cell viability
  cytotoxicity at 24 h: 10 to 20%
MDA-MB-231 TNBC cells
  IC50: 4 to 4.5 µM
